ChEMBL document CHEMBL5108087, “Synthesis and biological evaluation of paeoveitol D derivatives as new melatonin receptor agonists with antidepressant activities” (RSC Med Chem, 2022)

How the values were obtained:
[1] = molecular target: T1, Melatonin receptor type 1B (Homo sapiens, UniProt P49286); experiment: Agonist activity at human MT2 receptor expressed in HEK293 cells by Fluo-8 based calcium assay; format: functional, cell-based
T1 sequence (P49286 whole entry): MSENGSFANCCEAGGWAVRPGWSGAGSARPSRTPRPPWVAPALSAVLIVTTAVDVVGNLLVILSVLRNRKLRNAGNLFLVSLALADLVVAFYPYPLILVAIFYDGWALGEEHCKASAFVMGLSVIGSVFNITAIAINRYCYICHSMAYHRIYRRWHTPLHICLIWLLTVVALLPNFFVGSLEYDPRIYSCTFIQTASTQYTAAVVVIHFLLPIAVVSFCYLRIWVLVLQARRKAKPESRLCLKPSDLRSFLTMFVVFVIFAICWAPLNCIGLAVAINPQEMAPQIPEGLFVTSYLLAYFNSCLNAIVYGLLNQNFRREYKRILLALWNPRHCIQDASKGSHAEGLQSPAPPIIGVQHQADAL

[2] = molecular target: Melatonin receptor type 1A (Homo sapiens, UniProt P48039); experiment: Agonist activity at human MT1 receptor expressed in HEK293 cells by Fluo-8 based calcium assay; format: functional, cell-based
Melatonin receptor type 1A, sequence (P48039 whole entry): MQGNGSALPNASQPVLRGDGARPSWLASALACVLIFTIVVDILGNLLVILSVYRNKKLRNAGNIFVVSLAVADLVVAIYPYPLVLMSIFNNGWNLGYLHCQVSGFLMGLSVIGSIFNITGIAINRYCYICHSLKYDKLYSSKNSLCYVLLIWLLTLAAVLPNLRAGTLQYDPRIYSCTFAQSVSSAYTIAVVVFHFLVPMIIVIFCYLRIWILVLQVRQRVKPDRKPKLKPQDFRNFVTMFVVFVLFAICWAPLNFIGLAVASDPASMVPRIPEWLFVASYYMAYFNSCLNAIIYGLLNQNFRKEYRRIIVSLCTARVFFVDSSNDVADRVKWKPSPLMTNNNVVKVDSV

EC50 [1]: 350 µM
EC50 [2]: 310 µM
SMILES: COc1cc2c(CN3CCCC3)coc2cc1C
